Test results reported in ChEMBL document CHEMBL1201862, “PubChem BioAssay data set” (2004).
Calls of active or inactive are those of the source.

Key:
CHO = CHO cell viability loss, potency – luminescence, cytotoxicity control for TLR9-MyD88 binding inhibitor project, dose response (AID 588339); assay type: functional, cell-based, hamster; conditions: Cricetulus griseus;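 note: CHO cells stably coexpressing TLR9 and MyD88 fusions from primary screen; compound exposure lasted 48 hours before viability readout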
Beta Lactamase = Beta Lactamase (Pseudomonas aeruginosa, UniProt Q932Y6); assay: BLA reporter interference, concentration series – BLA reporter cells, FRET fluorescence, artefact control for TLR9-MyD88 binding inhibitor project, dose response (AID 588341); assay type: cell-based;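 note: cell based assay in CHO-K1 cells stably expressing beta-lactamase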
Sequence of Beta Lactamase (Q932Y6 whole entry): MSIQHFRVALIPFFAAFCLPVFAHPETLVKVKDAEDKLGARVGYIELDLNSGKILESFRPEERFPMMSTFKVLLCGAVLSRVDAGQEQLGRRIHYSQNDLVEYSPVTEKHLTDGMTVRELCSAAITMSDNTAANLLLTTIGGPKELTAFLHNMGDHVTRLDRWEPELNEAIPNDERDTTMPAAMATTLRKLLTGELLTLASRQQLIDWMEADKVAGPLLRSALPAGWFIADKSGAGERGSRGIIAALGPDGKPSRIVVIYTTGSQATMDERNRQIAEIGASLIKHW

[1] = reduction of Shn3 3'UTR-driven luciferase in osteoblasts – cell-based, Clone20 osteoblasts, firefly luciferase, cherry-picked, dose response (AID 624132); assay type: functional;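 note: firefly luciferase luminescence from reporter carrying the Shn3 3'UTR in osteoblasts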
[2] = loss of viability in HepG2 cells – cell-based, CellTiter-Glo, cherry-picked, cytotoxicity control for Shn3 inhibitor project, dose response (AID 624134); assay type: functional
[3] = non-specific 3'UTR reporter inhibition in Clone20-Shn3RL – cell-based, Renilla luciferase, cherry-picked, counter-screen for Shn3 inhibitor project, dose response (AID 624133); assay type: functional
[4] = molecular target: T1, Sentrin-specific protease 8 (Homo sapiens, UniProt Q96LD8); assay: inhibition of human SENP8 cleavage activity – biochemical, luminescence, SAR follow-up (AID 504501); assay type: functional
T1 sequence (Q96LD8 whole entry): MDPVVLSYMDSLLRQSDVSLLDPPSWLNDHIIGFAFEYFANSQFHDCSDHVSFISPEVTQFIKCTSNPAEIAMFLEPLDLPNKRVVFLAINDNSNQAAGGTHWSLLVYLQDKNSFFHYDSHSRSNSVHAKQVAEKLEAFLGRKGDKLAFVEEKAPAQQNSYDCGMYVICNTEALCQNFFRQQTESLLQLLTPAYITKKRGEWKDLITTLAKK

Caspase-3 [5] = molecular target: T2, Caspase-3 (Homo sapiens, UniProt P42574); assay: inhibition of recombinant caspase-3 activity – biochemical, luminescence, set 2, selectivity assay for SENP protease inhibitor project, SAR follow-up (AID 588599); assay type: functional
T2 sequence (P42574 whole entry): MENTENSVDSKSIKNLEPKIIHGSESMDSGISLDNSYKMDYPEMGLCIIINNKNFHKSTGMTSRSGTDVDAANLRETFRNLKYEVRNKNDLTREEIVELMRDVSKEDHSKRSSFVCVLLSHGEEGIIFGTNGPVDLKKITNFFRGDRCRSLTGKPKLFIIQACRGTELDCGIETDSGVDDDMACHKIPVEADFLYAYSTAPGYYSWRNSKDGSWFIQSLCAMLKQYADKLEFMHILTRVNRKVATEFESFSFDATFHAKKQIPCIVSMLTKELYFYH

[6] = molecular target: T1, Sentrin-specific protease 8; assay: inhibition of sentrin protease 8 – biochemical, luminescence, set 2, SAR follow-up (AID 588601); assay type: functional
Caspase-3 [7] = molecular target: T2, Caspase-3; assay: SAR Analysis of small molecule inhibitors of Sentrin-specific proteases (SENPs) using a Caspase-3 Selectivity assay. [Related pubchem assays (depositor defined):AID2540, AID2599, AID434973, AID489001]; assay type: functional
[8] = molecular target: T3, Sentrin-specific protease 7 (Homo sapiens, UniProt Q9BQF6); assay: inhibition of human SENP7 cleavage activity – biochemical, luminescence, set 2, SAR follow-up (AID 588600); assay type: functional
T3 sequence (Q9BQF6 whole entry): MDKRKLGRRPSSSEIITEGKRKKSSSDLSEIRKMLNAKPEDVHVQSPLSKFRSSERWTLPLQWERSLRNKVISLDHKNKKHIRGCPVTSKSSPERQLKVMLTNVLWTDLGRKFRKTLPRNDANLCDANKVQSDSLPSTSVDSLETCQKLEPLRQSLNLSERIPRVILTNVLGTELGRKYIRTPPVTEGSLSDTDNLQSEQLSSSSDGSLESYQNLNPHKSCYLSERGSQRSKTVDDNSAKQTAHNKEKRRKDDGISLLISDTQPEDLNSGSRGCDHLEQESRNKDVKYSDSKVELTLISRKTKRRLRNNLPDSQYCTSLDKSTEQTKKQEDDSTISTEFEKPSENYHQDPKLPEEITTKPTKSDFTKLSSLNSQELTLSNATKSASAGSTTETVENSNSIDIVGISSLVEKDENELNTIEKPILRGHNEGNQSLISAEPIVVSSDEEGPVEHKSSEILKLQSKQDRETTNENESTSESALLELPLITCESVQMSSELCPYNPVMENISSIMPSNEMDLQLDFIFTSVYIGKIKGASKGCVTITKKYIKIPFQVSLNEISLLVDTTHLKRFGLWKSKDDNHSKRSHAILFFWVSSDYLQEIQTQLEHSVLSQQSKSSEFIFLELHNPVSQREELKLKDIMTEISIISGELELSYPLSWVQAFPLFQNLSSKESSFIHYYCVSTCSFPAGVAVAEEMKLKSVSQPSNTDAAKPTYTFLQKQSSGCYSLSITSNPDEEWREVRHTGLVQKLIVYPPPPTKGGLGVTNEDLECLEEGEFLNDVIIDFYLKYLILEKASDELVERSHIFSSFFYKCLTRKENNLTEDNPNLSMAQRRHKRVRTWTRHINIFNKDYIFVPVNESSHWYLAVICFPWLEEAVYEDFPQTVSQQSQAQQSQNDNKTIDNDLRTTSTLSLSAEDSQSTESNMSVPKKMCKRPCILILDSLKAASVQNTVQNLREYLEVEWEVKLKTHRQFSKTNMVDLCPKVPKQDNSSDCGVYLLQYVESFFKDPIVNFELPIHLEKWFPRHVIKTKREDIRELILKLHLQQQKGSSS

[9] = molecular target: T4, Sentrin-specific protease 6 (Homo sapiens, UniProt Q9GZR1); assay: SAR Analysis of small molecule inhibitors of Sentrin-specific protease 6 (SENP6) using a Luminescent assay. [Related pubchem assays (depositor defined):AID2582, AID2599]; assay type: functional
T4 sequence (Q9GZR1 whole entry): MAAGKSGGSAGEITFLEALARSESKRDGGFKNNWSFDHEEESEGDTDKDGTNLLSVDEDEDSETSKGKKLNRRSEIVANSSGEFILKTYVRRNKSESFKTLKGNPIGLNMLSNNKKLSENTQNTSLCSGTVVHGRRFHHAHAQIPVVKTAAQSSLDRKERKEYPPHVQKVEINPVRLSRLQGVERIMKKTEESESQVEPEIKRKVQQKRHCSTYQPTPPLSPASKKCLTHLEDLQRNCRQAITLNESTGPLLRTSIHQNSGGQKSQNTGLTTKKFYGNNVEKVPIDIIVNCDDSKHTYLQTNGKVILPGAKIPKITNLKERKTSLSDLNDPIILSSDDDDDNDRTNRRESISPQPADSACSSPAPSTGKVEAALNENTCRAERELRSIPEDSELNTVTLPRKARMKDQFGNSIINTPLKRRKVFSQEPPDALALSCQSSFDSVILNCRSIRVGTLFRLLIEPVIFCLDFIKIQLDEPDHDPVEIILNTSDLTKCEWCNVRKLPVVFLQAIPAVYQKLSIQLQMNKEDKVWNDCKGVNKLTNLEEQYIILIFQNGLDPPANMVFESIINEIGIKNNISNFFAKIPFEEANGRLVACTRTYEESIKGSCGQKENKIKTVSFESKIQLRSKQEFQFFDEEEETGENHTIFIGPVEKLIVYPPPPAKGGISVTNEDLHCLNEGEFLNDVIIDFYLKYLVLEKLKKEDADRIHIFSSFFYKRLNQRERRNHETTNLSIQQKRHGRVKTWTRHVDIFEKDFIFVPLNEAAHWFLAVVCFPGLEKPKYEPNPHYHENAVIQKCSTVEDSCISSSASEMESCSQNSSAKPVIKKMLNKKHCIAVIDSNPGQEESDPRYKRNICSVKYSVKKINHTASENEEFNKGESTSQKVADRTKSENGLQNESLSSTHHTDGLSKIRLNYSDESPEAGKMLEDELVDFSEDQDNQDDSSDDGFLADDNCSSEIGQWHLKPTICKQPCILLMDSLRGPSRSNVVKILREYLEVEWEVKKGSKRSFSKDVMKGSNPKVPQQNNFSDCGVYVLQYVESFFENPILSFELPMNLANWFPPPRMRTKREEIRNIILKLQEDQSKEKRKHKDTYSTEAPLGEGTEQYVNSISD

[10] = molecular target: T4, Sentrin-specific protease 6; assay: inhibition of human SENP6 catalytic domain – biochemical, luminescence, set 2, SAR follow-up (AID 588598); assay type: functional
[11] = molecular target: T3, Sentrin-specific protease 7; assay: inhibition of human SENP7 cleavage activity – biochemical, luminescence, SAR follow-up (AID 504497); assay type: functional
[12] = molecular target: Serine/threonine-protein kinase pim-1 (Homo sapiens, UniProt P11309); assay type: functional
Sequence of Serine/threonine-protein kinase pim-1 (P11309 whole entry): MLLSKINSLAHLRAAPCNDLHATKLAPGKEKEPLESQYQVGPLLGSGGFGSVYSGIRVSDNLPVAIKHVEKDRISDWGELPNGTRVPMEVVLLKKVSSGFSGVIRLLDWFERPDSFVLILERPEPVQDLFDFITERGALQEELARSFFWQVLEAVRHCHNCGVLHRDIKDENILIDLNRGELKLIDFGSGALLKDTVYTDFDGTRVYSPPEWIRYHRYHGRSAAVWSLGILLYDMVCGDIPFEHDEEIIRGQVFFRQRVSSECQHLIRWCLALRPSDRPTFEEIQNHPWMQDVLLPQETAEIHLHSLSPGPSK

[13] = molecular target: Cell division cycle 7-related protein kinase (Homo sapiens, UniProt O00311); assay type: functional;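 note: value obtained from a kinome-wide kinase panel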
Sequence of Cell division cycle 7-related protein kinase (O00311 whole entry): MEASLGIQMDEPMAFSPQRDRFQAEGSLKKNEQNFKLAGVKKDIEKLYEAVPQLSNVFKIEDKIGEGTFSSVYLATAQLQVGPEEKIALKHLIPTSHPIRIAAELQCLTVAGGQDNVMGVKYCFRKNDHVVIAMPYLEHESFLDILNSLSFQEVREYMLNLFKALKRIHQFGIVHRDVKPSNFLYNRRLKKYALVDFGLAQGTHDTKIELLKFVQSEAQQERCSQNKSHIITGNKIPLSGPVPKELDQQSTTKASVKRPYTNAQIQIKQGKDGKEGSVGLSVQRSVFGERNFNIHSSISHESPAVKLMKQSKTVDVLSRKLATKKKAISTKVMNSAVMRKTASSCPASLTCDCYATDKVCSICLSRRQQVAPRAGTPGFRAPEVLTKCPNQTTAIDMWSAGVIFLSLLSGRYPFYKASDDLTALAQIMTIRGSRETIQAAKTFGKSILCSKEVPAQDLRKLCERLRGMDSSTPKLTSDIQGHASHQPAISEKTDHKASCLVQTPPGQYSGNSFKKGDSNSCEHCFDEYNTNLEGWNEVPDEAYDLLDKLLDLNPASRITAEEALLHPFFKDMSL

[14] = molecular target: Homeodomain-interacting protein kinase 2 (Homo sapiens, UniProt Q9H2X6); assay type: functional;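 note: measured within a kinome-wide kinase profiling panel, HIPK2 being one panel member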
Sequence of Homeodomain-interacting protein kinase 2 (Q9H2X6 whole entry): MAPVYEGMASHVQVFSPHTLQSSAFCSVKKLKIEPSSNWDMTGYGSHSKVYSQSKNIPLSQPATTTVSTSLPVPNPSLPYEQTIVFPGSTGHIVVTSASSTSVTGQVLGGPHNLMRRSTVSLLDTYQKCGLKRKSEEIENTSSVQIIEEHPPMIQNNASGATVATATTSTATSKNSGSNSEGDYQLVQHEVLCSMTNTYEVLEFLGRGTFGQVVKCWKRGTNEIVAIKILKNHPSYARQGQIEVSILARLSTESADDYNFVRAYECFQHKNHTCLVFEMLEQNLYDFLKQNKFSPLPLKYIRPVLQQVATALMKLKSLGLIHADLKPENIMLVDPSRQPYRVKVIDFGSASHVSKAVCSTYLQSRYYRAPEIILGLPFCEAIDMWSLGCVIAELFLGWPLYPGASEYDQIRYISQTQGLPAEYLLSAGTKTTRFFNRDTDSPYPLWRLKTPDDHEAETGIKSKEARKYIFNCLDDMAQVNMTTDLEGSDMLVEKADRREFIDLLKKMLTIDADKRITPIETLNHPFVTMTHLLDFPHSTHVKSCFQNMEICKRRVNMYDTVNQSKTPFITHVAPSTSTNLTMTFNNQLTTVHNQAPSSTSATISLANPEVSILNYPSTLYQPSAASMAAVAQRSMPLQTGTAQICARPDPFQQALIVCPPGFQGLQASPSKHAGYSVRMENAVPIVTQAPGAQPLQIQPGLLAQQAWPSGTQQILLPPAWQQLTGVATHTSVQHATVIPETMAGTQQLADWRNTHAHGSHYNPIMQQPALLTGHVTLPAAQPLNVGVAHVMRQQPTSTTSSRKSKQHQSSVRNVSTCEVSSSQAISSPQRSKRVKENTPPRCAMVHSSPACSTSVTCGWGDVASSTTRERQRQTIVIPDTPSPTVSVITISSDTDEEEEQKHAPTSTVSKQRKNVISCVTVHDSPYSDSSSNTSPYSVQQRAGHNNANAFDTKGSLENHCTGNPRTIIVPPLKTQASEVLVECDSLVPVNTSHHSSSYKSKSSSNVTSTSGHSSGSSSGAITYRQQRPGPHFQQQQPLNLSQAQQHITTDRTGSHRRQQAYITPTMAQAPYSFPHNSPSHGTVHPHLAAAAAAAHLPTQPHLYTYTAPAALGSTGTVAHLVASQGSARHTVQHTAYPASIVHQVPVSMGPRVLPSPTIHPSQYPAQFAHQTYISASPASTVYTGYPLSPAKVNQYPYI

[15] = molecular target: Interleukin-1 receptor-associated kinase 4 (Homo sapiens, UniProt Q9NWZ3); assay type: functional
Sequence of Interleukin-1 receptor-associated kinase 4 (Q9NWZ3 whole entry): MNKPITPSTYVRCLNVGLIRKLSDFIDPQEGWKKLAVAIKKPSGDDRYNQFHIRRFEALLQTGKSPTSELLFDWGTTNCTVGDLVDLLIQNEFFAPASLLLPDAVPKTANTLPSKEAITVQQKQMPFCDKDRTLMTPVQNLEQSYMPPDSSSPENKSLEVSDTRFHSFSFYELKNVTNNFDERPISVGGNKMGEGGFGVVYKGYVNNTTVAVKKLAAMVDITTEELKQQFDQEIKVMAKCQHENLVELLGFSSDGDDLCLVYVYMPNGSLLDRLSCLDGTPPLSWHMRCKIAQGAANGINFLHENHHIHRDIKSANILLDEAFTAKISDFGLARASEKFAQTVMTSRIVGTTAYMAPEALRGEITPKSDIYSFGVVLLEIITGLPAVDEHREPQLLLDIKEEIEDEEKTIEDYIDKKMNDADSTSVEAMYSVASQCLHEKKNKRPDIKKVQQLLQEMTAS

[16] = molecular target: cAMP-dependent protein kinase catalytic subunit alpha (Homo sapiens, UniProt P17612); assay type: functional
[17] = molecular target: Mitogen-activated protein kinase kinase kinase kinase 4 (Homo sapiens, UniProt O95819); assay type: functional
Sequence of Mitogen-activated protein kinase kinase kinase kinase 4 (O95819 whole entry): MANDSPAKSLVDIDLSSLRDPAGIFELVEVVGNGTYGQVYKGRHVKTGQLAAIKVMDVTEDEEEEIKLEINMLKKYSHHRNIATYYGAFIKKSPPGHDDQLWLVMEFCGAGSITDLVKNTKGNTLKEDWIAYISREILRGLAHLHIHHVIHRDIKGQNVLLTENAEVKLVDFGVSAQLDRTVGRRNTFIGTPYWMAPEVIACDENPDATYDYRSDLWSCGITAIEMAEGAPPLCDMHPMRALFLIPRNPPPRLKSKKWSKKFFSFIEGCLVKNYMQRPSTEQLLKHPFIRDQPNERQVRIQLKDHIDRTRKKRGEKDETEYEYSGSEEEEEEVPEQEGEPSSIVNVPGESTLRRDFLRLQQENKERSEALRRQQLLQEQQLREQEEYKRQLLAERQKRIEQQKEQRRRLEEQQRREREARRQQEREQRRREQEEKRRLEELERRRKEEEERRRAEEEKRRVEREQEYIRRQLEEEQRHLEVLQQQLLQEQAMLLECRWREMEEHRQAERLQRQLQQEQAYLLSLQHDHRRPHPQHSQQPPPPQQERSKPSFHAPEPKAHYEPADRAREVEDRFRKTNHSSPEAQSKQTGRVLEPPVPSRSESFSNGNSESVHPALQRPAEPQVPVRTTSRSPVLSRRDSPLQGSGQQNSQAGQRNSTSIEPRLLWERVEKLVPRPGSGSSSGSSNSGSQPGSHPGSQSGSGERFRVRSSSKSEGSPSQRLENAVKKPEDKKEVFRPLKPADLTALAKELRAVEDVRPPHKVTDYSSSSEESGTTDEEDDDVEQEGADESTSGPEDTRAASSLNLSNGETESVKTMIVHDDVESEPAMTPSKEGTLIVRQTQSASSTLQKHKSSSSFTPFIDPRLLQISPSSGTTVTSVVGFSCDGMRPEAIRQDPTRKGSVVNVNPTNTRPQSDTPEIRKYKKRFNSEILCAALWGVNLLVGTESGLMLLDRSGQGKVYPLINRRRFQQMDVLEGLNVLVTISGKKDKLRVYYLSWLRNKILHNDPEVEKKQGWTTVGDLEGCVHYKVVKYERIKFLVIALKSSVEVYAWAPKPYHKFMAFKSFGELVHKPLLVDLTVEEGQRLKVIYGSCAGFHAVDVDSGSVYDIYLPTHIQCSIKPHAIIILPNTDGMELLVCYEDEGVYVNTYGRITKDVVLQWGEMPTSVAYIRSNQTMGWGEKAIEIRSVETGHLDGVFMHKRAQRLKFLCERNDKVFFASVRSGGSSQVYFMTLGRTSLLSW

[18] = molecular target: Protein disulfide-isomerase (Homo sapiens, UniProt P07237); assay: inhibition of PDI-driven insulin aggregation – biochemical, turbidity, absorbance, cherry-picked samples, dose response (AID 602350); assay type: functional
Sequence of Protein disulfide-isomerase (P07237 whole entry): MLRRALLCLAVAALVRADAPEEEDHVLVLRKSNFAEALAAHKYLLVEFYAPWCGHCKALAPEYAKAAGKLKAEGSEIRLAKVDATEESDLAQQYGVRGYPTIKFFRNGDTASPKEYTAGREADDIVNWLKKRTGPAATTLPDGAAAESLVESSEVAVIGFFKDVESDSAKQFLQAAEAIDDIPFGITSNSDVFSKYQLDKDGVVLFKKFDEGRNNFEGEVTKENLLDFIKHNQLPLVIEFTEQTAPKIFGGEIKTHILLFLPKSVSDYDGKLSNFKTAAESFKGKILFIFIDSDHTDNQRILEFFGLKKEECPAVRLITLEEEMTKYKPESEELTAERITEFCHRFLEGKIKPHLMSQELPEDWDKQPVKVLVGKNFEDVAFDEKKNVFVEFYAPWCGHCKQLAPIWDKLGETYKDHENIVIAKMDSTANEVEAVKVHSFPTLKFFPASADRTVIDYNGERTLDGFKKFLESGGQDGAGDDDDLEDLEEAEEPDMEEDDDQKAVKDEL

Structure (SMILES): C=C1C(=O)c2sccc2C(c2ccc(OC)c(OC)c2)C1COC(C)=O (stereo not given)
- IC50 (CHO): 1.69 µM (active)
- IC50 (Beta Lactamase): 21.4 µM (inactive)
- AC50 [1]: 0.662 µM (active)
- AC50 [2]: 6.99 µM (active)
- AC50 [3]: 3.62 µM (active)

Structure (SMILES): CC(=O)Nc1ccc(/C=C/c2noc(-c3ccccc3O)n2)cc1
- IC50 [4]: > 99 µM (inactive)
- IC50 (Caspase-3 [5]): > 99 µM (inactive)
- IC50 [6]: 1.86 µM (active)
- IC50 (Caspase-3 [7]): 35 µM (active)
- IC50 [8]: 2.31 µM (active)
- IC50 [9]: > 99 µM (inactive)
- IC50 [10]: > 99 µM (inactive)
- IC50 [11]: 7.2 µM (active)

Structure (SMILES): c1ccc(Cn2cc(-c3ccc4[nH]nc(-c5cn(Cc6ccccc6)nn5)c4c3)nn2)cc1
- Ki [12]: 0.398 µM (active)
- Ki [13]: 0.0501 µM (active)
- Ki [14]: 0.0158 µM (active)
- Ki [15]: 3.98 µM (active)
- Ki [16]: > 7.94 µM (inactive)
- Ki [17]: 0.1 µM (active)

Structure (SMILES): O=C1NC[C@H](Cc2ccccc2)N(C[C@H]2CCCN2C[C@H](Cc2ccccc2)N2C[C@H](Cc3ccc(O)cc3)N(CCc3ccccc3)C(=O)C2=O)C1=O
- AC50 [18]: 6.5 µM (active)
